# Experimental data reported in patent US7491819B1 (priority 2004, dated 2009).
# Biological target: T1, HIV-integrase (Human immunodeficiency virus type 1 group M subtype B, UniProt P12497)
# T1 construct: Recombinant integrase (0.26 ng) was incubated with the beads
# Experiment: HIV-Integrase Inhibition Activity (SPA bead strand-transfer assay)
# Type: biochemical
# Conditions: Table 1; read-out: Activity (HIV-integrase inhibition, IC50 class)
# Experimental: HIV-Integrase Inhibition Activity. To evaluate in-vitro activity against HIV-integrase, 5 pmole of biotin labeled substrate DNA was bound to 100 μg of Streptavidin coated PVT SPA beads (Amersham Pharmacia Biotech). Recombinant integrase (0.26 ng) was incubated with the beads for 90 min at 37° C. Unbound enzyme was removed by washing the complex followed by addition of inhibitors and 0.1 fmol of P33 labeled target DNA. The reaction was stopped by adding EDTA to a final concentration of 10 mM. Samples were counted in TopCountNXT (Packard) and the CPM was used as a measure of integration. The reaction condition was as described in A. Engelman and R. Craigie, J. Virol 69, 5908-5911 (1995). The sequences of substrate and target DNA were described in Nucleic Acid Research 22, 1121-1122 (1994).
row,Compound,IC50
1,"CC1(C)OCCn2c1nc(C(=O)NCc1ccccn1)c(O)c2=O [Example 141, Pyrimido[2,1-c][1,4]oxazine-2-carboxamide, 4,6,7,9-tetrahydro-3-hydroxy-9,9-dimethyl-4-oxo-N-(2-pyridinylmethyl)-]",2 to 100 nM
2,"CC1(C)OCCn2c1nc(C(=O)NCc1ccccc1-c1cccc3cccnc13)c(O)c2=O [Example 148, Pyrimido[2,1-c][1,4]oxazine-2-carboxamide, 4,6,7,9-tetrahydro-3-hydroxy-9,9-dimethyl-4-oxo-N-[[2-(8-quinolinyl)phenyl]methyl]-]",100 to 1000 nM
3,"CCC1(CC)OCCn2c1nc(C(=O)NCc1ccc(F)cc1C(=O)NC)c(O)c2=O [Example 120, Pyrimido[2,1-c][1,4]oxazine-2-carboxamide, 9,9-diethyl-N-[[4-fluoro-2-[(methylamino)carbonyl]phenyl]methyl]-4,6,7,9-tetrahydro-3-hydroxy-4-oxo-]",2 to 100 nM
4,"CC1(C)OCCn2c1nc(C(=O)NCc1ccc(F)cc1-n1cncn1)c(O)c2=O [Example 21, Pyrimido[2,1-c][1,4]oxazine-2-carboxamide, N-[[4-fluoro-2-(1H-1,2,4-triazol-1-yl)phenyl]methyl]-4,6,7,9-tetrahydro-3-hydroxy-9,9-dimethyl-4-oxo-]",2 to 100 nM
5,"Cc1c(Cl)cccc1CNC(=O)c1nc2n(c(=O)c1O)CCOC2(C)C [Example 236, Pyrimido[2,1-c][1,4]oxazine-2-carboxamide, N-[(3-chloro-2-methylphenyl)methyl]-4,6,7,9-tetrahydro-3-hydroxy-9,9-dimethyl-4-oxo-]",2 to 100 nM
6,"CC1(C)OCCn2c1nc(C(=O)NCc1ccc(Cl)cc1Cl)c(O)c2=O [Example 271, Pyrimido[2,1-c][1,4]oxazine-2-carboxamide, N-[(2,4-dichlorophenyl)methyl]-4,6,7,9-tetrahydro-3-hydroxy-9,9-dimethyl-4-oxo-]",2 to 100 nM
7,"Cc1cccc(-c2ccccc2CNC(=O)c2nc3n(c(=O)c2O)CCOC3(C)C)c1 [Example 163, Pyrimido[2,1-c][1,4]oxazine-2-carboxamide, 4,6,7,9-tetrahydro-3-hydroxy-9,9-dimethyl-N-[(3′-methyl[1,1′-biphenyl]-2-yl)methyl]-4-oxo-]",2 to 100 nM
8,"CC1(C)OCCn2c1nc(C(=O)NCc1c(F)cccc1Cl)c(O)c2=O [Example 273, Pyrimido[2,1-c][1,4]oxazine-2-carboxamide, N-[(2-chloro-6-fluorophenyl)methyl]-4,6,7,9-tetrahydro-3-hydroxy-9,9-dimethyl-4-oxo-]",2 to 100 nM
9,"CC1(C)OCCn2c1nc(C(=O)NCc1ccc(-n3nccn3)cc1F)c(O)c2=O [Example 58, Pyrimido[2,1-c][1,4]oxazine-2-carboxamide, N-[[2-fluoro-4-(2H-1,2,3-triazol-2-yl)phenyl]methyl]-4,6,7,9-tetrahydro-3-hydroxy-9,9-dimethyl-4-oxo-]",2 to 100 nM
10,"CNC(=O)c1ccc(-c2ccccc2CNC(=O)c2nc3n(c(=O)c2O)CCOC3(C)C)cc1 [Example 175, Pyrimido[2,1-c][1,4]oxazine-2-carboxamide, 4,6,7,9-tetrahydro-3-hydroxy-9,9-dimethyl-N-[[4′-[(methylamino)carbonyl][1,1′-biphenyl]-2-yl]methyl]-4-oxo-]",2 to 100 nM
11,"CS(=O)(=O)CCC1OCCn2c1nc(C(=O)NCc1ccc(F)cc1)c(O)c2=O (stereo not shown) [Example 209, Pyrimido[2,1-c][1,4]oxazine-2-carboxamide, N-[(4-fluorophenyl)methyl]-4,6,7,9-tetrahydro-3-hydroxy-9-[2-(methylsulfonyl)ethyl]-4-oxo-]",2 to 100 nM
12,"Cc1noc(C)c1-c1ccccc1CNC(=O)c1nc2n(c(=O)c1O)CCOC2(C)C [Example 180, Pyrimido[2,1-c][1,4]oxazine-2-carboxamide, N-[[2-(3,5-dimethyl-4-isoxazolyl)phenyl]methyl]-4,6,7,9-tetrahydro-3-hydroxy-9,9-dimethyl-4-oxo-]",2 to 100 nM
13,"Cc1ccc(CNC(=O)c2nc3n(c(=O)c2O)CCOC3(C)C)c(C)c1 [Example 37, Pyrimido[2,1-c][1,4]oxazine-2-carboxamide, N-[(2,4-dimethylphenyl)methyl]-4,6,7,9-tetrahydro-3-hydroxy-9,9-dimethyl-4-oxo-]",2 to 100 nM
14,"COc1ccc(-c2ccccc2CNC(=O)c2nc3n(c(=O)c2O)CCOC3(C)C)c(OC)n1 [Example 154, Pyrimido[2,1-c][1,4]oxazine-2-carboxamide, N-[[2-(2,6-dimethoxy-3-pyridinyl)phenyl]methyl]-4,6,7,9-tetrahydro-3-hydroxy-9,9-dimethyl-4-oxo-]",2 to 100 nM
15,"CC1(C)OCCn2c1nc(C(=O)NCc1ccc(F)cc1-n1cnc(C(=O)NS(=O)(=O)c3ccc(F)cc3)n1)c(O)c2=O [Example 68, Pyrimido[2,1-c][1,4]oxazine-2-carboxamide, N-[[4-fluoro-2-[3-[[[(4-fluorophenyl)sulfonyl]amino]carbonyl]-1H-1,2,4-triazol-1-yl]phenyl]methyl]-4,6,7,9-tetrahydro-3-hydroxy-9,9-dimethyl-4-oxo-]",2 to 100 nM
16,"CN(C)CCNC(=O)c1ncn(-c2cc(F)ccc2CNC(=O)c2nc3n(c(=O)c2O)CCOC3(C)C)n1 [Example 70, Pyrimido[2,1-c][1,4]oxazine-2-carboxamide, N-[[2-[3-[[[2-(dimethylamino)ethyl]amino]carbonyl]-1H-1,2,4-triazol-1-yl]-4-fluorophenyl]methyl]-4,6,7,9-tetrahydro-3-hydroxy-9,9-dimethyl-4-oxo-]",2 to 100 nM
17,"CC1(C)OCCn2c1nc(C(=O)NCc1ccccc1-c1cccc(C(=O)N3CCCC3)c1)c(O)c2=O [Example 172, Pyrimido[2,1-c][1,4]oxazine-2-carboxamide, 4,6,7,9-tetrahydro-3-hydroxy-9,9-dimethyl-4-oxo-N-[[3′-(1-pyrrolidinylcarbonyl)[1,1′-biphenyl]-2-yl]methyl]-]",2 to 100 nM
18,"CCC1OCCn2c1nc(C(=O)NCc1ccc(F)c(C)c1)c(O)c2=O (stereo not shown) [Example 11, Pyrimido[2,1-c][1,4]oxazine-2-carboxamide, 9-ethyl-N-[(4-fluoro-3-methylphenyl)methyl]-4,6,7,9-tetrahydro-3-hydroxy-4-oxo-]",2 to 100 nM
19,"CN(C)S(=O)(=O)c1cc(F)ccc1CNC(=O)c1nc2n(c(=O)c1O)CCOC2(C)C [Example 108, Pyrimido[2,1-c][1,4]oxazine-2-carboxamide, N-[[2-[(dimethylamino)sulfonyl]-4-fluorophenyl]methyl]-4,6,7,9-tetrahydro-3-hydroxy-9,9-dimethyl-4-oxo-]",2 to 100 nM
20,"CC1(C)OCCn2c1nc(C(=O)NCc1ccc(F)cc1N1C(=O)CC[C@H]1CO)c(O)c2=O [Example 130, Pyrimido[2,1-c][1,4]oxazine-2-carboxamide, N-[[4-fluoro-2-[(2S)-2-(hydroxymethyl)-5-oxo-1-pyrrolidinyl]phenyl]methyl]-4,6,7,9-tetrahydro-3-hydroxy-9,9-dimethyl-4-oxo-]",2 to 100 nM
21,"Cc1cccc(CNC(=O)c2nc3n(c(=O)c2O)CCOC3(C)C)c1 [Example 223, Pyrimido[2,1-c][1,4]oxazine-2-carboxamide, 4,6,7,9-tetrahydro-3-hydroxy-9,9-dimethyl-N-[(3-methylphenyl)methyl]-4-oxo-]",2 to 100 nM
22,"CCC1(CC)OCCn2c1nc(C(=O)NCc1ccc(F)cc1S(C)(=O)=O)c(O)c2=O [Example 203, Pyrimido[2,1-c][1,4]oxazine-2-carboxamide, 9,9-diethyl-N-[[4-fluoro-2-(methylsulfonyl)phenyl]methyl]-4,6,7,9-tetrahydro-3-hydroxy-4-oxo-]",2 to 100 nM
23,"CC1(C)OCCn2c1nc(C(=O)NCc1cccc(Cl)c1F)c(O)c2=O [Example 266, Pyrimido[2,1-c][1,4]oxazine-2-carboxamide, N-[(3-chloro-2-fluorophenyl)methyl]-4,6,7,9-tetrahydro-3-hydroxy-9,9-dimethyl-4-oxo-]",2 to 100 nM
24,"Cc1ncnn1-c1cc(F)ccc1CNC(=O)c1nc2n(c(=O)c1O)CCOC2(C)C [Example 82, Pyrimido[2,1-c][1,4]oxazine-2-carboxamide, N-[[4-fluoro-2-(5-methyl-1H-1,2,4-triazol-1-yl)phenyl]methyl]-4,6,7,9-tetrahydro-3-hydroxy-9,9-dimethyl-4-oxo-]",2 to 100 nM
25,"CC1(C)OCCn2c1nc(C(=O)NCc1ccc(F)cc1N1C(=O)CC[C@@H]1CN=[N+]=[N-])c(O)c2=O [Example 132, (R)—N-(2-(2-(Azidomethyl)-5-oxopyrrolidin-1-yl)-4-fluorobenzyl)-3-hydroxy-9,9-dimethyl-4-oxo-4,6,7,9-tetrahydropyrimido[2,1-c][1,4]oxazine-2-carboxamide]",2 to 100 nM
26,"CC1(C)OCCn2c1nc(C(=O)NCc1cccc(Cl)c1)c(O)c2=O [Example 226, Pyrimido[2,1-c][1,4]oxazine-2-carboxamide, N-[(3-chlorophenyl)methyl]-4,6,7,9-tetrahydro-3-hydroxy-9,9-dimethyl-4-oxo-]",2 to 100 nM
27,"CC1(C)OCCn2c1nc(C(=O)NCc1ccc(F)cc1-c1cccc(=O)[nH]1)c(O)c2=O [Example 80, Pyrimido[2,1-c][1,4]oxazine-2-carboxamide, N-[[2-(1,6-dihydro-6-oxo-2-pyridinyl)-4-fluorophenyl]methyl]-4,6,7,9-tetrahydro-3-hydroxy-9,9-dimethyl-4-oxo-]",2 to 100 nM
28,"CC1(C)OCCn2c1nc(C(=O)NCc1ccc(F)cc1N1CCOCC1)c(O)c2=O [Example 23, Pyrimido[2,1-c][1,4]oxazine-2-carboxamide, N-[[4-fluoro-2-(4-morpholinyl)phenyl]methyl]-4,6,7,9-tetrahydro-3-hydroxy-9,9-dimethyl-4-oxo-]",2 to 100 nM
